In PubChem BioAssay AID330 (DTP/NCI, 2004):
Several values for one entry are separate records, joined by “and”; a condition that tells them apart may be missing. Identical values can stand only once. Inconclusive results and toxic doses are left out.

System: P388 leukemia ip, CD2F1 mice, survival T/C
Assay: NCI In Vivo Anticancer Drug Screen. Data for tumor model P388 Leukemia (intraperitoneal) in CD2F1 (CDF1) mice
Conditions: endpoint: median survival time, higher = longer survival
Procedure, shortened: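 Mice carrying the transplanted tumor received test compound or vehicle. Survival was recorded in each group, and the value is the treated-group measurement divided by that of the vehicle-treated control group.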

[1] = dose: 60.0 mg/kg/injection, schedule: Q01DX005 (ip), vehicle: saline with Tween-80
[2] = dose: 120.0 mg/kg/injection, schedule: Q01DX005 (ip), vehicle: saline with Tween-80
[3] = dose: 240.0 mg/kg/injection, schedule: Q01DX005 (ip), vehicle: saline with Tween-80
[4] = dose: 200.0 mg/kg/injection, schedule: Q04DX003 (ip), vehicle: saline with Tween-80
[5] = dose: 50.0 mg/kg/injection, schedule: Q01DX009 (ip), vehicle: Klucel (hydroxypropylcellulose) (HPC)
[6] = dose: 100.0 mg/kg/injection, schedule: Q01DX009 (ip), vehicle: Klucel (hydroxypropylcellulose) (HPC)
[7] = dose: 200.0 mg/kg/injection, schedule: Q01DX009 (ip), vehicle: Klucel (hydroxypropylcellulose) (HPC)
[8] = dose: 12.5 mg/kg/injection, schedule: Q01DX009 (ip), vehicle: Klucel (hydroxypropylcellulose) (HPC)
[9] = dose: 25.0 mg/kg/injection, schedule: Q01DX009 (ip), vehicle: Klucel (hydroxypropylcellulose) (HPC)
[10] = dose: 50.0 mg/kg/injection, schedule: Q01DX009 (ip), vehicle: saline with Tween-80
[11] = dose: 100.0 mg/kg/injection, schedule: Q01DX009 (ip), vehicle: saline with Tween-80
[12] = dose: 60.0 mg/kg/injection, schedule: Q01DX005 (ip), vehicle: Klucel (hydroxypropylcellulose) (HPC)
[13] = dose: 120.0 mg/kg/injection, schedule: Q01DX005 (ip), vehicle: Klucel (hydroxypropylcellulose) (HPC)

## C1CSCCSCCSCCS1
dose: 100.0 mg/kg/injection, schedule: Q04DX003 (ip), vehicle: Klucel (hydroxypropylcellulose) (HPC)
  T/C: 100 % of control
dose: 200.0 mg/kg/injection, schedule: Q04DX003 (ip), vehicle: Klucel (hydroxypropylcellulose) (HPC)
  T/C: 100 % of control
dose: 400.0 mg/kg/injection, schedule: Q04DX003 (ip), vehicle: Klucel (hydroxypropylcellulose) (HPC)
  T/C: 101 % of control

## COc1cc(/C=N/N2CN(C(C)C(=O)O)B(Nc3ncccn3)N=C2N)cc(OC)c1 (stereo unspecified)
dose: 60.0 mg/kg/injection, schedule: Q01DX005 (ip), vehicle: saline
  T/C: 103 % of control
dose: 120.0 mg/kg/injection, schedule: Q01DX005 (ip), vehicle: saline
  T/C: 111 % of control
dose: 240.0 mg/kg/injection, schedule: Q01DX005 (ip), vehicle: saline
  T/C: 112 % of control

## O=C(OCc1ccccc1)N1CC=CC1Cc1ccccc1 (stereo unspecified)
dose: 100.0 mg/kg/injection, schedule: Q01DX001 (ip), vehicle: distilled water + alcohol
  T/C: 97 % of control
dose: 200.0 mg/kg/injection, schedule: Q01DX001 (ip), vehicle: distilled water + alcohol
  T/C: 99 % of control
dose: 400.0 mg/kg/injection, schedule: Q01DX001 (ip), vehicle: distilled water + alcohol
  T/C: 100 % of control

## Cc1ccc2c3c(c(=O)oc2c1)[C@H](C)C[C@@](C)(CO)O3
[1]
  T/C: 113 % of control
[2]
  T/C: 107 % of control
[3]
  T/C: 100 % of control

## S=C([S-])N[N-]c1ccccc1.S=C([S-])N[N-]c1ccccc1.[Ni]
dose: 100.0 mg/kg/injection, schedule: Q04DX003 (ip), vehicle: saline with Tween-80
  T/C: 97 % of control
[4]
  T/C: 100 % of control
dose: 400.0 mg/kg/injection, schedule: Q04DX003 (ip), vehicle: saline with Tween-80
  T/C: 100 % of control

## COc1ccc2c(O)c3[n+](cc2c1OC)CCc1cc2c(cc1-3)OCO2
[1]
  T/C: 99 % of control
[2]
  T/C: 104 % of control
[3]
  T/C: 101 % of control

## NC(CSC(c1ccccc1)(c1ccccc1)c1ccc(Cl)cc1)C(=O)O (stereo unspecified)
dose: 33.0 mg/kg/injection, schedule: Q04DX003 (ip), vehicle: saline with Tween-80
  T/C: 177 % of control
dose: 50.0 mg/kg/injection, schedule: Q04DX003 (ip), vehicle: saline with Tween-80
  T/C: 181 % of control and 272 % of control
dose: 75.0 mg/kg/injection, schedule: Q04DX003 (ip), vehicle: saline with Tween-80
  T/C: 200 % of control
[4]
  T/C: 100 % of control

## ClCOc1cc(Cl)c(OCCl)cc1Cl
[5]
  T/C: 116 % of control
[6]
  T/C: 113 % of control
[7]
  T/C: 101 % of control

## O=C1Nc2ccccc2SC1c1ccccc1Cl (stereo unspecified)
dose: 6.25 mg/kg/injection, schedule: Q01DX009 (ip), vehicle: saline
  T/C: 96 % of control
dose: 12.5 mg/kg/injection, schedule: Q01DX009 (ip), vehicle: saline
  T/C: 99 % of control
dose: 25.0 mg/kg/injection, schedule: Q01DX009 (ip), vehicle: saline
  T/C: 105 % of control
dose: 50.0 mg/kg/injection, schedule: Q01DX009 (ip), vehicle: saline
  T/C: 106 % of control and 93 % of control
dose: 100.0 mg/kg/injection, schedule: Q01DX009 (ip), vehicle: saline
  T/C: 102 % of control
dose: 200.0 mg/kg/injection, schedule: Q01DX009 (ip), vehicle: saline
  T/C: 105 % of control
dose: 400.0 mg/kg/injection, schedule: Q01DX009 (ip), vehicle: saline
  T/C: 113 % of control

## COc1ccc(C(O)c2cc(C(F)(F)F)cc(C(F)(F)F)c2)cc1OC (stereo unspecified)
dose: 50.0 mg/kg/injection, schedule: Q01DX005 (ip), vehicle: Klucel (hydroxypropylcellulose) (HPC)
  T/C: 100 % of control
dose: 100.0 mg/kg/injection, schedule: Q01DX005 (ip), vehicle: Klucel (hydroxypropylcellulose) (HPC)
  T/C: 92 % of control
dose: 200.0 mg/kg/injection, schedule: Q01DX005 (ip), vehicle: Klucel (hydroxypropylcellulose) (HPC)
  T/C: 91 % of control

## CCn1c2ccccc2c2cc(N)c(N=Nc3ccc([N+](=O)[O-])c(OC)c3)cc21
[5]
  T/C: 104 % of control
[6]
  T/C: 104 % of control
[7]
  T/C: 105 % of control

## Oc1cc(-c2cc3cccc[n+]3o2)cc(O)c1O
[8]
  T/C: 100 % of control
[9]
  T/C: 99 % of control
[5]
  T/C: 100 % of control

## COc1ccc(N2c3ccccc3-c3cc[nH]c(=O)c3[C@H]2O)cc1OC
dose: 18.75 mg/kg/injection, schedule: Q01DX001 (ip), vehicle: Klucel (hydroxypropylcellulose) (HPC)
  T/C: 101 % of control
dose: 18.75 mg/kg/injection, schedule: Q04DX002 (ip), vehicle: Klucel (hydroxypropylcellulose) (HPC)
  T/C: 99 % of control
dose: 18.75 mg/kg/injection, schedule: Q04DX003 (ip), vehicle: Klucel (hydroxypropylcellulose) (HPC)
  T/C: 112 % of control
dose: 37.5 mg/kg/injection, schedule: Q01DX001 (ip), vehicle: Klucel (hydroxypropylcellulose) (HPC)
  T/C: 100 % of control
dose: 37.5 mg/kg/injection, schedule: Q04DX002 (ip), vehicle: Klucel (hydroxypropylcellulose) (HPC)
  T/C: 110 % of control
dose: 37.5 mg/kg/injection, schedule: Q04DX003 (ip), vehicle: Klucel (hydroxypropylcellulose) (HPC)
  T/C: 96 % of control
dose: 75.0 mg/kg/injection, schedule: Q01DX001 (ip), vehicle: Klucel (hydroxypropylcellulose) (HPC)
  T/C: 103 % of control
dose: 75.0 mg/kg/injection, schedule: Q04DX002 (ip), vehicle: Klucel (hydroxypropylcellulose) (HPC)
  T/C: 106 % of control
dose: 75.0 mg/kg/injection, schedule: Q04DX003 (ip), vehicle: Klucel (hydroxypropylcellulose) (HPC)
  T/C: 96 % of control
dose: 150.0 mg/kg/injection, schedule: Q01DX001 (ip), vehicle: Klucel (hydroxypropylcellulose) (HPC)
  T/C: 104 % of control
dose: 150.0 mg/kg/injection, schedule: Q04DX002 (ip), vehicle: Klucel (hydroxypropylcellulose) (HPC)
  T/C: 101 % of control
dose: 150.0 mg/kg/injection, schedule: Q04DX003 (ip), vehicle: Klucel (hydroxypropylcellulose) (HPC)
  T/C: 106 % of control

## COc1ccc(N=Cc2cccs2)cc1
[5]
  T/C: 94 % of control
[6]
  T/C: 114 % of control
[7]
  T/C: 105 % of control

## O=[N+]([O-])c1nccn1CC(O)CF (stereo unspecified)
dose: 86.4 mg/kg/injection, schedule: Q01DX005 (ip), vehicle: saline + Tween-80 + alcohol
  T/C: 104 % of control
dose: 144.0 mg/kg/injection, schedule: Q01DX005 (ip), vehicle: saline + Tween-80 + alcohol
  T/C: 89 % of control
dose: 216.0 mg/kg/injection, schedule: Q01DX001 (ip), vehicle: saline + Tween-80 + alcohol
  T/C: 100 % of control
dose: 216.0 mg/kg/injection, schedule: Q01DX001 (ip), vehicle: saline with Tween-80
  T/C: 100 % of control
dose: 240.0 mg/kg/injection, schedule: Q01DX005 (ip), vehicle: saline + Tween-80 + alcohol
  T/C: 103 % of control
dose: 360.0 mg/kg/injection, schedule: Q01DX001 (ip), vehicle: saline + Tween-80 + alcohol
  T/C: 104 % of control
dose: 360.0 mg/kg/injection, schedule: Q01DX001 (ip), vehicle: saline with Tween-80
  T/C: 104 % of control
dose: 600.0 mg/kg/injection, schedule: Q01DX001 (ip), vehicle: saline + Tween-80 + alcohol
  T/C: 101 % of control
dose: 600.0 mg/kg/injection, schedule: Q01DX001 (ip), vehicle: saline with Tween-80
  T/C: 101 % of control

## Cc1cccc2ncc([N+](=O)[O-])n12
[10]
  T/C: 114 % of control and 88 % of control
[11]
  T/C: 102 % of control and 89 % of control

## C=CCCCCn1c2ccccc2c2c(C)c3cnccc3c(C)c21
[10]
  T/C: 100 % of control
[11]
  T/C: 115 % of control
dose: 200.0 mg/kg/injection, schedule: Q01DX009 (ip), vehicle: saline with Tween-80
  T/C: 115 % of control

## N#CC1=C(N)OC(C2CC2)=C(C#N)C1c1ccco1 (stereo unspecified)
[12]
  T/C: 88 % of control
[13]
  T/C: 88 % of control

## COc1ccc(S(=O)(=O)F)cc1C(=O)O
[1]
  T/C: 114 % of control
[2]
  T/C: 112 % of control
[3]
  T/C: 104 % of control

## O=C1CN(CCN2CCCCC2)CC(=O)N2Cc3ccccc3CN12
dose: 12.5 mg/kg/injection, schedule: Q01DX005 (ip), vehicle: saline with Tween-80
  T/C: 102 % of control
dose: 25.0 mg/kg/injection, schedule: Q01DX005 (ip), vehicle: saline with Tween-80
  T/C: 104 % of control
dose: 50.0 mg/kg/injection, schedule: Q01DX005 (ip), vehicle: saline with Tween-80
  T/C: 100 % of control and 102 % of control

## COC(=O)/C(=N\NS(=O)(=O)c1ccc(C)cc1)c1ccccc1
[8]
  T/C: 99 % of control
[9]
  T/C: 105 % of control
[5]
  T/C: 99 % of control
[6]
  T/C: 98 % of control
[7]
  T/C: 90 % of control

## Cc1ccccc1C1OC(N)=C(O)C1=O (stereo unspecified)
[12]
  T/C: 93 % of control
[13]
  T/C: 93 % of control
dose: 240.0 mg/kg/injection, schedule: Q01DX005 (ip), vehicle: Klucel (hydroxypropylcellulose) (HPC)
  T/C: 90 % of control
